Common to all, as to format: cell-based
The target in test [1] is T1, GLP-1R (Homo sapiens, UniProt P43220). Briefly: HitHunter cAMP assay (GLP-1R). The following applies: cAMP; for Emax: read-out: (Emax) GLP-1R. Summed up:
(§1)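 cAMP accumulation read by luminescent HitHunter immunocompetition after 30 min room-temperature agonist stimulation. Agonists tested as 22-point twofold dilutions, in duplicate, on 10,000 cells/well in HBSS containing 625 μM IBMX, 10 mM HEPES and 0.2% BSA.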

In another test the target is T2, GIP-R (Homo sapiens, UniProt P48546).
T2 sequence (P48546 22-466): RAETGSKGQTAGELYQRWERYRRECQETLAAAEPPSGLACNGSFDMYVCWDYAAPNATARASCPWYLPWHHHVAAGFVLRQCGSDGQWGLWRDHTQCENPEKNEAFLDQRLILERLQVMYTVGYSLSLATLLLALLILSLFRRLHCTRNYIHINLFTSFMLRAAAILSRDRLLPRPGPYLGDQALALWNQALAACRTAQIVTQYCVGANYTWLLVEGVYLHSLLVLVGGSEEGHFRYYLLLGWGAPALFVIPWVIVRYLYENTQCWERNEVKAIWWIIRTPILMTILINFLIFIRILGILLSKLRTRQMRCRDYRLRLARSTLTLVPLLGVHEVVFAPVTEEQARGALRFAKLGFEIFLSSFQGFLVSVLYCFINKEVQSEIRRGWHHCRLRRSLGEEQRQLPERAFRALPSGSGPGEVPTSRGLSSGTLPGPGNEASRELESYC
Briefly: HitHunter cAMP assay (GIP-R). The following applies: cAMP; for Emax: read-out: (Emax) GIP-R; for Emax at 1 µM: read-out: (Emax) GIP-R at 1 μM, Table 3. Summed up:
as §1
(In general: Cyclic AMP is a second messenger, typically raised through Gs and lowered through Gi signalling.)

The target of test [2] is T1, GLP-1R. Description: PathHunter β-arrestin assay. Summed up: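 β-Arrestin recruitment measured by PathHunter enzyme-fragment luminescence, read after 3 h dark incubation at room temperature with detection solution. Beforehand, agonist in a 22-point 2-fold series was applied in duplicate for 90 min at 37 °C to 5,000 cells/well in BSA-containing (0.2%) medium.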

The structures appear in SMILES notation. Like-named read-outs stand apart in the source and are kept apart here.

Results on five molecules are retold here after patent US20260176320A1, “MODULATORS OF G-PROTEIN COUPLED RECEPTORS” (priority 2018, published 2026).

T1 sequence (P43220 24-463): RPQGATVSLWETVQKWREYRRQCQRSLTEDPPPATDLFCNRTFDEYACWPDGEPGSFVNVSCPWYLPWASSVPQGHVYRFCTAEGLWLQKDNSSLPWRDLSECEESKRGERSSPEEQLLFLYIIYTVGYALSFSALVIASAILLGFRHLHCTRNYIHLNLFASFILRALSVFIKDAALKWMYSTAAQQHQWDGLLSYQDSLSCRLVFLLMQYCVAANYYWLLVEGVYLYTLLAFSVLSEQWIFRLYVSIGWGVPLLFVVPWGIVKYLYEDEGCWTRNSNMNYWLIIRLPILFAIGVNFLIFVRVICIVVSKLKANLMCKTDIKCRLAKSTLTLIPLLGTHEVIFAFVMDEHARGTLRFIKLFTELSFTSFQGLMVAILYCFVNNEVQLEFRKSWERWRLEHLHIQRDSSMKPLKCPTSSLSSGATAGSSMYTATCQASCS

On to `CC[C@H](C)[C@H](NC(=O)[C@H](CO)NC(=O)[C@H](Cc1ccc(O)cc1)NC(=O)[C@H](CC(=O)O)NC(=O)[C@H](CO)NC(=O)[C@@H](NC(=O)[C@H](Cc1ccccc1)NC(=O)[C@@H](NC(=O)CNC(=O)[C@H](CCC(=O)O)NC(=O)CSCC(=O)NCCn1ncc2ccccc2c1=O)[C@@H](C)O)[C@@H](C)O)C(=O)N[C@@H](Cc1ccc(O)cc1)C(=O)N[C@@H](CC(C)C)C(=O)N[C@@H](CC(=O)O)C(=O)N[C@@H](CCCCN)C(=O)N[C@@H](CCC(N)=O)C(=O)N[C@@H](C)C(=O)N[C@@H](C)C(=O)NC(C)(C)C(=O)N[C@@H](CCC(=O)O)C(=O)N[C@@H](Cc1ccccc1)C(=O)N[C@H](C(=O)N[C@@H](CC(N)=O)C(=O)N[C@@H](Cc1c[nH]c2ccccc12)C(=O)N[C@@H](CC(C)C)C(=O)N[C@@H](CC(C)C)C(=O)N[C@@H](C)C(=O)NCC(=O)NCC(=O)N1CCC[C@H]1C(=O)N[C@@H](CO)C(=O)N[C@@H](CO)C(=O)NCC(=O)N[C@@H](C)C(=O)N1CCC[C@H]1C(=O)N1CCC[C@H]1C(=O)N1CCC[C@H]1C(=O)N[C@@H](CO)C(=O)N[C@@H](CCCCN)C(N)=O)C(C)C` [Compound 136], for which the EC50 was 10 to 100 nM on GLP-1R [1] (EC50 GLP-1R/nM, Table 3); 10 to 100 nM at GLP-1R [1] (EC50 GLP-1R/nM, Table 3A); 0.1 to 1 nM on GIP-R (EC50 GIP-R/nM, Table 3); 0.1 to 1 nM at GIP-R (EC50 GIP-R/nM, Table 3A); over 1000 nM on GLP-1R [2]. Moreover, the Emax on GLP-1R [1] (Table 3) was 91 to 94%; at GLP-1R [1] (Table 3A), 91 to 94%; on GIP-R (Table 3), 105%; on GIP-R (Table 3A), 105%.
As to `CC[C@H](C)[C@H](NC(=O)[C@H](CO)NC(=O)[C@H](Cc1ccc(O)cc1)NC(=O)[C@H](CC(=O)O)NC(=O)[C@H](CO)NC(=O)[C@@H](NC(=O)[C@H](Cc1ccccc1)NC(=O)[C@@H](NC(=O)CNC(=O)[C@H](CCC(=O)O)NC(=O)c1ccc(C(=O)NCCN2C(=O)CSC2=O)cc1)[C@@H](C)O)[C@@H](C)O)C(=O)N[C@@H](Cc1ccc(O)cc1)C(=O)N[C@@H](CC(C)C)C(=O)N[C@@H](CC(=O)O)C(=O)N[C@@H](CCCCN)C(=O)N[C@@H](CCC(N)=O)C(=O)N[C@@H](C)C(=O)N[C@@H](C)C(=O)NC(C)(C)C(=O)N[C@@H](CCC(=O)O)C(=O)N[C@@H](Cc1ccccc1)C(=O)N[C@H](C(=O)N[C@@H](CC(N)=O)C(=O)N[C@@H](Cc1c[nH]c2ccccc12)C(=O)N[C@@H](CC(C)C)C(=O)N[C@@H](CC(C)C)C(=O)N[C@@H](C)C(=O)NCC(=O)NCC(=O)N1CCC[C@H]1C(=O)N[C@@H](CO)C(=O)N[C@@H](CO)C(=O)NCC(=O)N[C@@H](C)C(=O)N1CCC[C@H]1C(=O)N1CCC[C@H]1C(=O)N1CCC[C@H]1C(=O)N[C@@H](CO)C(=O)N[C@@H](CCCCN)C(N)=O)C(C)C` [Compound 186], the Emax at GLP-1R [1] (Table 3) and at GLP-1R [1] (Table 3A) was 94% throughout. In addition, the EC50 at GLP-1R [1] (Table 3, read-out: EC50 GLP-1R/nM) was 1 to 10 nM; at GLP-1R [1] (Table 3A, read-out: EC50 GLP-1R/nM), 1 to 10 nM; at GIP-R (Table 3, read-out: EC50 GIP-R/nM), over 1000 nM; at GIP-R (Table 3A, read-out: EC50 GIP-R/nM), over 1000 nM; at GLP-1R [2] (PathHunter β-arrestin assay, read-out: β-arrestin activity EC50), over 1000 nM. Moreover, the maximum response (Emax) at 1 µM on GIP-R amounted to 4%.
As to `CC[C@H](C)[C@H](NC(=O)[C@H](CO)NC(=O)[C@H](Cc1ccc(O)cc1)NC(=O)[C@H](CC(=O)O)NC(=O)[C@H](CO)NC(=O)[C@@H](NC(=O)[C@H](Cc1ccccc1)NC(=O)[C@@H](NC(=O)CNC(=O)[C@H](CCC(=O)O)NC(=O)CCCCCCN1C(=O)CSC1=O)[C@@H](C)O)[C@@H](C)O)C(=O)N[C@@H](Cc1ccc(O)cc1)C(=O)N[C@@H](CC(C)C)C(=O)N[C@@H](CC(=O)O)C(=O)N[C@@H](CCCCN)C(=O)N[C@@H](CCC(N)=O)C(=O)N[C@@H](C)C(=O)N[C@@H](C)C(=O)NC(C)(C)C(=O)N[C@@H](CCC(=O)O)C(=O)N[C@@H](Cc1ccccc1)C(=O)N[C@H](C(=O)N[C@@H](CC(N)=O)C(=O)N[C@@H](Cc1c[nH]c2ccccc12)C(=O)N[C@@H](CC(C)C)C(=O)N[C@@H](CC(C)C)C(=O)N[C@@H](C)C(=O)NCC(=O)NCC(=O)N1CCC[C@H]1C(=O)N[C@@H](CO)C(=O)N[C@@H](CO)C(=O)NCC(=O)N[C@@H](C)C(=O)N1CCC[C@H]1C(=O)N1CCC[C@H]1C(=O)N1CCC[C@H]1C(=O)N[C@@H](CO)C(=O)N[C@@H](CCCCN)C(N)=O)C(C)C` [Compound 176], the EC50 at GLP-1R [1] (EC50 GLP-1R/nM, Table 3) was 10 to 100 nM; at GLP-1R [1] (EC50 GLP-1R/nM, Table 3A) it was 10 to 100 nM; at GIP-R (EC50 GIP-R/nM, Table 3) it was over 1000 nM; on GIP-R (read-out: EC50 GIP-R/nM, Table 3A) it was over 1000 nM; at GLP-1R [2] it was over 1000 nM. In addition, the Emax on GLP-1R [1] (Table 3) and on GLP-1R [1] (Table 3A) was 92% throughout. On GIP-R, the Emax at 1 µM is 1.8%.
Take `CC[C@H](C)[C@H](NC(=O)[C@H](CO)NC(=O)[C@H](Cc1ccc(O)cc1)NC(=O)[C@H](CC(=O)O)NC(=O)[C@H](CO)NC(=O)[C@@H](NC(=O)[C@H](Cc1ccccc1)NC(=O)[C@@H](NC(=O)CNC(=O)[C@H](CCC(=O)O)NC(=O)CCC(=O)NCCN1C(=O)c2ccccc2C1=O)[C@@H](C)O)[C@@H](C)O)C(=O)N[C@@H](Cc1ccc(O)cc1)C(=O)N[C@@H](CC(C)C)C(=O)N[C@@H](CC(=O)O)C(=O)N[C@@H](CCCCN)C(=O)N[C@@H](CCC(N)=O)C(=O)N[C@@H](C)C(=O)N[C@@H](C)C(=O)NC(C)(C)C(=O)N[C@@H](CCC(=O)O)C(=O)N[C@@H](Cc1ccccc1)C(=O)N[C@H](C(=O)N[C@@H](CC(N)=O)C(=O)N[C@@H](Cc1c[nH]c2ccccc12)C(=O)N[C@@H](CC(C)C)C(=O)N[C@@H](CC(C)C)C(=O)N[C@@H](C)C(=O)NCC(=O)NCC(=O)N1CCC[C@H]1C(=O)N[C@@H](CO)C(=O)N[C@@H](CO)C(=O)NCC(=O)N[C@@H](C)C(=O)N1CCC[C@H]1C(=O)N1CCC[C@H]1C(=O)N1CCC[C@H]1C(=O)N[C@@H](CO)C(=O)N[C@@H](CCCCN)C(N)=O)C(C)C` [Compound 187]: the EC50 on GLP-1R [1] (EC50 GLP-1R/nM, Table 3) is 10 to 100 nM; on GLP-1R [1] (EC50 GLP-1R/nM, Table 3A), 10 to 100 nM; at GIP-R (EC50 GIP-R/nM, Table 3) it was 10 to 100 nM; on GIP-R (EC50 GIP-R/nM, Table 3A), 10 to 100 nM; at GLP-1R [2], over 1000 nM. The Emax on GLP-1R [1] (Table 3) came to 89%; at GLP-1R [1] (Table 3A), 89%; at GIP-R (Table 3) it was 58%; on GIP-R (Table 3A), 58%.
In the case of `CCCCCCCCCCCCCCCC(=O)N[C@@H](CCC(=O)NCCCC[C@H](NC(=O)[C@H](CO)NC(=O)[C@@H]1CCCN1C(=O)[C@@H]1CCCN1C(=O)[C@@H]1CCCN1C(=O)[C@H](C)NC(=O)CNC(=O)[C@H](CO)NC(=O)[C@H](CO)NC(=O)[C@@H]1CCCN1C(=O)CNC(=O)CNC(=O)[C@H](C)NC(=O)[C@H](CC(C)C)NC(=O)[C@H](CC(C)C)NC(=O)[C@H](Cc1c[nH]c2ccccc12)NC(=O)[C@H](CC(N)=O)NC(=O)[C@@H](NC(=O)[C@H](Cc1ccccc1)NC(=O)[C@H](CCC(=O)O)NC(=O)C(C)(C)NC(=O)[C@H](C)NC(=O)[C@H](C)NC(=O)[C@H](CCC(N)=O)NC(=O)[C@H](CCCCN)NC(=O)[C@H](CC(=O)O)NC(=O)[C@H](CC(C)C)NC(=O)[C@H](Cc1ccc(O)cc1)NC(=O)[C@@H](NC(=O)[C@H](CO)NC(=O)[C@H](Cc1ccc(O)cc1)NC(=O)[C@H](CC(=O)O)NC(=O)[C@H](CO)NC(=O)[C@@H](NC(=O)[C@H](Cc1ccccc1)NC(=O)[C@@H](NC(=O)CNC(=O)[C@H](CCC(=O)O)NC(=O)CSCC(=O)NCCN1CCC[C@@H](O)C1=O)[C@@H](C)O)[C@@H](C)O)[C@@H](C)CC)C(C)C)C(N)=O)C(=O)O` [Compound 7], the EC50 on GLP-1R [1] (EC50 GLP-1R/nM, Table 3) was under 0.1 nM; on GLP-1R [1] (EC50 GLP-1R/nM, Table 3A) it was under 0.1 nM; on GIP-R (EC50 GIP-R/nM, Table 3), 1 to 10 nM; on GIP-R (EC50 GIP-R/nM, Table 3A), 10 to 100 nM; on GLP-1R [2], over 1000 nM. For the same molecule, the Emax on GLP-1R [1] (Table 3) was determined as 94%; on GLP-1R [1] (Table 3A), 94%; at GIP-R (Table 3), 29%; on GIP-R (Table 3A), 29%.

Broadly, the Emax is the maximal effect, on the per cent scale that the assay sets.
